Patent publication EP4656642A1, “ESTROGEN RECEPTOR PROTEOLYSIS TARGETING CHIMERA COMPOUND AND USE THEREOF” (GAN & LEE PHARM CO., LTD, priority 2023, dated 2024)

Experiments:
Assay type in all cases: cell-based
[1] = test system: MCF-7 cells; assay: Inhibition of cell proliferation of MCF-7 cells (CCK-8, 9 days); settings: treated for 9 days, CCK-8 kit (Table 6)
From the text: Test Example 4 Inhibitory effect of the PROTAC compounds disclosed in the present disclosure on cell proliferation of MCF-7 cells
The complete medium required for MCF-7 cells (source ATCC) was DMEM (gibco, Product number :11995-065) basal medium containing 10% fetal bovine serum. MCF-7 cells were inoculated in 96-well plates at a density of 800 cells/well, and different concentrations of the PROTAC compounds 1-55 provided in the embodiments of the present disclosure and a positive control sample ARV-471 (source: Innochem) were prepared to treat cells, and cells were treated at 37°C in a cell culture incubator with 5% CO2 for 9 days. Cell viability was detected using a CCK -8 kit (Beyotime , Product number: C0040) according to the manufacturer's instruction. […] Table 5 IC50 values for inhibition of the proliferation of MCF-7 cells by the PROTAC compounds of the present disclosure and positive control sample

[2] = biological target: T1, ERα (Homo sapiens, UniProt P03372); assay: Degradation of ERα in MCF-7 cells (immunoblotting, 4 h)
T1 sequence (P03372 1-595): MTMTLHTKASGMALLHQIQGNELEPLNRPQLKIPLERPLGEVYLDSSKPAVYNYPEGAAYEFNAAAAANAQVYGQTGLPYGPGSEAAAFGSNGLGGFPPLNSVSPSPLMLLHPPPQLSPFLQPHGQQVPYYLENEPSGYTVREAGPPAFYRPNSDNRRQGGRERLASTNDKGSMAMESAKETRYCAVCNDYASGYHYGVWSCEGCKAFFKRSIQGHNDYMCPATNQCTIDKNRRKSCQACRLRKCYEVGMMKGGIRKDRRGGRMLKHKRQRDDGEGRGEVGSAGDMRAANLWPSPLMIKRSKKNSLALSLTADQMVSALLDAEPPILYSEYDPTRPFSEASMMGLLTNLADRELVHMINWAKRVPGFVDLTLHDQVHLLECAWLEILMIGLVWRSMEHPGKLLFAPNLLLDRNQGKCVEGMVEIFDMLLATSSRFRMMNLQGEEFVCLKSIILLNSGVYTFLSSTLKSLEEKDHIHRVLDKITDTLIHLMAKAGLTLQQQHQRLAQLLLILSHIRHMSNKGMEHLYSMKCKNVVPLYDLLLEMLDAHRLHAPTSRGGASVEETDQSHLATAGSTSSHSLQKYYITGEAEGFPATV
Protocol: MCF-7 cells were inoculated into 6-well plates at a density of 3×10^5 cells/well and cultured at 37°C, 5% CO2 for 24h. After the cells were attached to the wall, 1µL of the compound solution in dimethyl sulfoxide (final concentration 0.15-1000nM) was added and continued to be cultured in incubator at 37°C with 5% CO2 for 4 h. After 4 h, the culture medium was discarded, and each well was washed once with pre-cooled 1×DPBS, and the cells were lysed with a mixture of 50 µL of RIPA lysis buffer (P0013B, Beyotime) and 1× protease inhibitor (P1005, Beyotime), and then centrifuged at 14,000 g for 30 min at 4°C after resting on ice for 20 min, and the supernatant was carefully collected to detect the protein level of ERα by protein immunoblotting (Immunoblotting).
Protein immunoblotting: The total protein concentration in the collected cell lysate supernatant was determined by BCA Protein Concentration Assay Kit (Enhanced) (P0009, Beyotime). According to the total protein concentration detected by BCA, the protein was adjusted to 1 µg/µL with RIPA lysis buffer and 5× SDS-PAGE protein loading buffer (MB01015, Genscript), and the protein was denatured by water bath at 95°C for 5 min, and then centrifuged after denaturation to enrich the condensate on the wall of the centrifuge tubes as a loading sample. […] At the end of electrophoresis, the proteins in the SDS-PAGE gels were transferred to a PVDF membrane at a constant voltage of 100 V for 60 min. After that, the PVDF membrane corresponding to ERα protein and internal reference protein was cut out and incubated in 1×QµickBlock blocking solution (P0252, Beyotime) for 30 min at room temperature on a shaker. […] Protein profiles were analyzed by Image Studio Lite analysis software for grayscale values. Grayscale correction values were calculated for each sample using the Formula: corrected grayscale value = grayscale value of the target protein /corresponding grayscale value of the internal reference. The degradation rate for the compounds was then calculated by comparing the corrected grayscale values of the compound group to the control group. Table 7 Degradation rate (%) of ERα by the PROTAC compounds of the present disclosure and positive control sample in MCF-7 cells

[3] = biological target: T1, ERα; assay: Degradation of ERα in T-47D cells (immunoblotting, 4 h); design: host or cells: T-47D
Protocol: T-47D cells were inoculated into 6-well plates at a density of 3×10^5 cells/well and cultured at 37°C, 5% CO2 for 24 h. After the cells were attached to the wall, 1µL of the compound solution in dimethyl sulfoxide (final concentration 0.15-1000 nM) was added and continued to be cultured in the incubator with 5% CO2 at 37°C for 4 h. After 4 h, the culture medium was discarded, and each well was washed once with pre-cooled 1×DPBS, and the cells were lysed with a mixture of 50 µL of RIPA lysis buffer (P0013B, Beyotime) and 1× protease inhibitor (P1005, Beyotime), and then centrifuged at 14,000 g for 30 min at 4°C after resting on ice for 20 min, and the supernatant was carefully collected to detect the protein level of ERα by protein immunoblotting (Immunoblotting).

Row | Structure (SMILES) | IC50 [1] [nM] | Degradation rate (%) of ERα in MCF-7 cells ([2]; 1nM compound) [%] | Degradation rate (%) of ERα in MCF-7 cells ([2]; 10nM compound) [%] | Degradation rate (%) of ERα in T-47D cells ([3]; 1nM compound) [%] | Degradation rate (%) of ERα in T-47D cells ([3]; 10nM compound) [%] | IC50 ([1]; Homo sapiens, MCF7, 216 h) [nM]
1 | O=C1CCC(N2Cc3cc4c(cc3C2=O)CCC2(CN(CC3CCC5(CC3)CCN(c3ccc([C@@H]6c7ccc(O)cc7CC[C@@H]6c6ccccc6)cc3)CC5)C2)O4)C(=O)N1 (stereo partly drawn) [A38] | 240 | -1 | -24 | – | – | –
2 | O=C1CCC(N2Cc3cc4c(cc3C2=O)OC2(CC4)CN(C3CN(C4CCN(c5ccc([C@@H]6c7ccc(O)cc7CC[C@@H]6c6ccccc6)cc5)CC4)C3)C2)C(=O)N1 (stereo partly drawn) [A56] | 2790 | – | – | 38 | 38 | –
3 | O=C1CCC(N2Cc3cc4c(cc3C2=O)CCC2(CN(C3CN(C5CCN(c6ccc([C@@H]7c8ccc(O)cc8CC[C@@H]7c7ccccc7)cc6)CC5)C3)C2)O4)C(=O)N1 (stereo partly drawn) [A57] | 2790 | – | – | 34 | 43 | –
4 | O=C1CCC(N2Cc3c(ccc4c3OCC43CCN(C4CN(C5CCN(c6ccc([C@@H]7c8ccc(O)cc8CC[C@@H]7c7ccccc7)cc6)CC5)C4)CC3)C2=O)C(=O)N1 (stereo partly drawn) [A58] | 12.8 | 42 | 69 | 35 | 71 | –
5 | O=C1CCC(N2C(=O)c3cc4c(cc3C2=O)OC2(CCN(C3CCN(C5CN(c6ccc([C@@H]7c8ccc(O)cc8CC[C@@H]7c7ccccc7)cc6)C5)CC3)CC2)C4)C(=O)N1 (stereo partly drawn) [A59] | 905 | 11 | 11 | 42 | 50 | –
6 | O=C1CCC(N2Cc3c(ccc4c3OCC43CCN(C(=O)CN4CCC5(CC4)CCN(c4ccc([C@@H]6c7ccc(O)cc7CC[C@@H]6c6ccccc6)cc4)CC5)CC3)C2=O)C(=O)N1 (stereo partly drawn) [A62] | 15.2 | 52 | 82 | 73 | 89 | –
7 | O=C1CCC(N2Cc3c(ccc4c3OCC43CCN(C(=O)CN4CCC5(CCN(c6ccc([C@@H]7c8ccc(O)cc8CC[C@@H]7c7ccccc7)cc6)CC5)C4)CC3)C2=O)C(=O)N1 (stereo partly drawn) [A63] | 3.24 | 69 | 68 | 67 | 80 | –
8 | O=C1CCC(N2C(=O)c3cc4c(cc3C2=O)OC2(CCN(C(=O)CN3CCC5(CC3)CCN(c3ccc([C@@H]6c7ccc(O)cc7CC[C@@H]6c6ccccc6)cc3)CC5)CC2)C4)C(=O)N1 (stereo partly drawn) [A64] | 206 | 13 | 47 | 12 | 61 | –
9 | O=C1CCC(N2Cc3c(ccc4c3OC3(CC4)CCN(C(=O)CN4CCC5(CC4)CCN(c4ccc([C@@H]6c7ccc(O)cc7CC[C@@H]6c6ccccc6)cc4)CC5)CC3)C2=O)C(=O)N1 (stereo partly drawn) [A65] | 125 | 23 | 23 | 14 | 50 | –
10 | O=C1CCC(N2Cc3cc4c(cc3C2=O)OC2(CC4)CCN(C(=O)CN3CCC4(CC3)CCN(c3ccc([C@@H]5c6ccc(O)cc6CC[C@@H]5c5ccccc5)cc3)CC4)CC2)C(=O)N1 (stereo partly drawn) [A67] | 3.96 | 27 | 67 | 26 | 76 | –
11 | O=C1CCC(N2C(=O)c3ccc4c(c3C2=O)OCC42CCN(C(=O)CN3CCC4(CC3)CCN(c3ccc([C@@H]5c6ccc(O)cc6CC[C@@H]5c5ccccc5)cc3)CC4)CC2)C(=O)N1 (stereo partly drawn) [A68] | 19.1 | 11 | 40 | 35 | 77 | –
12 | O=C1CCC(N2Cc3c(ccc4c3OCC43CCN(CC(=O)N4CCC5(CC4)CCN(c4ccc([C@@H]6c7ccc(O)cc7CC[C@@H]6c6ccccc6)cc4)CC5)CC3)C2=O)C(=O)N1 (stereo partly drawn) [A74] | – | 28 | 62 | 73 | 87 | –
13 | CN(C[C@H]1CC[C@H](C(=O)N2CCC3(CC2)COc2c3ccc3c2CN(C2CCC(=O)NC2=O)C3=O)CC1)[C@@H]1CCN(c2ccc([C@@H]3c4ccc(O)cc4CC[C@@H]3c3ccccc3)cc2)C[C@@H]1F (stereo partly drawn) [D12] | – | 39 | 61 | 55 | 81 | –
14 | C[C@]12CC[C@@H]3c4ccc(O)cc4CC[C@H]3[C@@H]1CC[C@@H]2O [E2] | – | – | – | – | – | 34.8
15 | O=C1CCC(N2Cc3c(ccc4c3OCC43CCN(C[C@H]4CC[C@H](OC5CCN(c6ccc([C@@H]7c8ccc(O)cc8CC[C@@H]7c7ccccc7)cc6)CC5)CC4)CC3)C2=O)C(=O)N1 (stereo partly drawn) [G24] | – | – | – | 47 | 81 | –
16 | O=C1CCC(N2Cc3c(ccc4c3OCC43CCN(S(=O)(=O)[C@H]4CC[C@H](C(=O)N5CCN(c6ccc([C@@H]7c8ccc(O)cc8CC[C@@H]7c7ccccc7)cc6)CC5)CC4)CC3)C2=O)C(=O)N1 (stereo partly drawn) [G26] | 32400 | 37 | 66 | – | – | –
17 | O=C1CCC(N2C(=O)c3cc4c(cc3C2=O)OC2(CC4)CN(CC3CCN(c4ccc([C@@H]5c6ccc(O)cc6CC[C@@H]5c5ccccc5)cc4)CC3)C2)C(=O)N1 (stereo partly drawn) [H1] | – | -13 | -16 | -6 | -15 | –
18 | O=C1CCC(N2C(=O)c3ccc4c(c3C2=O)OCC42CCN(C3CC4(CCN(c5ccc([C@@H]6c7ccc(O)cc7CC[C@@H]6c6ccccc6)cc5)CC4)C3)CC2)C(=O)N1 (stereo partly drawn) [L17] | – | -2 | 10 | 24 | 23 | –
19 | CC1(C(=O)N2CCC(N3CCC4(CC3)COc3c4ccc4c3CN(C3CCC(=O)NC3=O)C4=O)CC2)CCN(c2ccc([C@@H]3c4ccc(O)cc4CC[C@@H]3c3ccccc3)cc2)CC1 (stereo partly drawn) [N 1] | 14.8 | – | – | – | – | –
